Reference: ChEMBL document CHEMBL1201862, “PubChem BioAssay data set” (2004)
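Cultured in 96-well plates, cells were exposed to test compound for 48 hours across five concentrations. GI50 = concentration required for 50% inhibition of growth.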 Active and inactive are the calls of the source. Cut-off read from the data, not from the text of the source: active = GI50 up to about 1.1 µM and inactive = higher.

Key:
Assay in all cases: growth of human tumour cells (NCI), 48 h
A549 = test system: A549
BT-549 = test system: BT-549
CAKI-1 = test system: CAKI-1
COLO 205 = test system: COLO 205
EKVX = test system: EKVX
HOP-62 = test system: HOP-62
KM12 = test system: KM12
MDA-MB-231 = test system: MDA-MB-231
MDA-MB-435 = test system: MDA-MB-435
Malme-3M = test system: Malme-3M
NCI-H23 = test system: NCI-H23
NCI-H522 = test system: NCI-H522
OVCAR-3 = test system: OVCAR-3
PC-3 = test system: PC-3
RPMI-8226 = test system: RPMI-8226
SK-MEL-5 = test system: SK-MEL-5
SK-OV-3 = test system: SK-OV-3
SNB-75 = test system: SNB-75
UACC-62 = test system: UACC-62
MCF7 = test system: MCF7

SMILES | GI50 (A549) | GI50 (BT-549) | GI50 (CAKI-1) | GI50 (COLO 205) | GI50 (EKVX) | GI50 (HOP-62) | GI50 (KM12) | GI50 (MDA-MB-231) | GI50 (MDA-MB-435) | GI50 (Malme-3M) | GI50 (NCI-H23) | GI50 (NCI-H522) | GI50 (OVCAR-3) | GI50 (PC-3) | GI50 (RPMI-8226) | GI50 (SK-MEL-5) | GI50 (SK-OV-3) | GI50 (SNB-75) | GI50 (UACC-62) | GI50 (MCF7)
O=C(O)/C=C\C(=O)Nc1ccccn1 | > 100 µM (inactive) | > 100 µM (inactive) | > 100 µM (inactive) | > 100 µM (inactive) | > 100 µM (inactive) | > 100 µM (inactive) | > 100 µM (inactive) | > 100 µM (inactive) | > 100 µM (inactive) | > 100 µM (inactive) | > 100 µM (inactive) | > 100 µM (inactive) | > 100 µM (inactive) | > 100 µM (inactive) | > 100 µM (inactive) | > 100 µM (inactive) | > 100 µM (inactive) | > 100 µM (inactive) | > 100 µM (inactive) | –
CN1c2ccccc2C(=O)NC12CCN(Cc1ccccc1)CC2 | 56.9 µM (inactive) | – | – | 35.4 µM (inactive) | 42.2 µM (inactive) | 54.7 µM (inactive) | 46 µM (inactive) | 96.6 µM (inactive) | 63.1 µM (inactive) | 87.1 µM (inactive) | > 100 µM (inactive) | – | – | – | 47.2 µM (inactive) | 54.8 µM (inactive) | 84.9 µM (inactive) | 75 µM (inactive) | 86.5 µM (inactive) | 46 µM (inactive)
O=[N+]([O-])C(/C=C(\Cl)n1nnc2ccccc21)=C(/Cl)n1nnc2ccccc21 | > 100 µM (inactive) | – | > 100 µM (inactive) | > 100 µM (inactive) | > 100 µM (inactive) | > 100 µM (inactive) | > 100 µM (inactive) | > 100 µM (inactive) | > 100 µM (inactive) | > 100 µM (inactive) | > 100 µM (inactive) | > 100 µM (inactive) | > 100 µM (inactive) | > 100 µM (inactive) | > 100 µM (inactive) | > 100 µM (inactive) | > 100 µM (inactive) | – | > 100 µM (inactive) | –
CSc1nc(C#N)c(N)n1C | > 100 µM (inactive) | > 100 µM (inactive) | > 100 µM (inactive) | > 100 µM (inactive) | > 100 µM (inactive) | > 100 µM (inactive) | > 100 µM (inactive) | > 100 µM (inactive) | > 100 µM (inactive) | > 100 µM (inactive) | > 100 µM (inactive) | > 100 µM (inactive) | > 100 µM (inactive) | > 100 µM (inactive) | > 100 µM (inactive) | > 100 µM (inactive) | > 100 µM (inactive) | – | > 100 µM (inactive) | –
CC(=O)Nc1ccc2c(C)c3c4ccccc4n(C)c3nc2n1 | 16 µM (inactive) | 31.3 µM (inactive) | 12.2 µM (inactive) | 12.7 µM (inactive) | 29 µM (inactive) | 14.3 µM (inactive) | 11.9 µM (inactive) | 18.7 µM (inactive) | 18.7 µM (inactive) | – | 19.3 µM (inactive) | 16.1 µM (inactive) | 26.1 µM (inactive) | 18.9 µM (inactive) | – | 9.29 µM (inactive) | – | 14.4 µM (inactive) | 20.1 µM (inactive) | 20.8 µM (inactive)
O=c1cn[nH]c(=S)n1/N=C/c1c[nH]c2ccccc12 | > 100 µM (inactive) | 72.6 µM (inactive) | > 100 µM (inactive) | > 100 µM (inactive) | > 100 µM (inactive) | 49.3 µM (inactive) | > 100 µM (inactive) | – | 58.5 µM (inactive) | > 100 µM (inactive) | – | 39.1 µM (inactive) | > 100 µM (inactive) | 77.6 µM (inactive) | 49.5 µM (inactive) | > 100 µM (inactive) | > 100 µM (inactive) | – | 78.7 µM (inactive) | 45.7 µM (inactive)
Cc1ccc(C2(N3CCOCC3)OC(C)(C)c3cccc4cccc2c34)cc1 (stereo not drawn) | 12.9 µM (inactive) | 17.3 µM (inactive) | 18.2 µM (inactive) | 15.9 µM (inactive) | 13 µM (inactive) | 15.7 µM (inactive) | 21.1 µM (inactive) | – | 16.9 µM (inactive) | 16.8 µM (inactive) | 17.7 µM (inactive) | 15.8 µM (inactive) | 16 µM (inactive) | 16.5 µM (inactive) | 16.2 µM (inactive) | 18.6 µM (inactive) | 16.7 µM (inactive) | 15.4 µM (inactive) | 13.6 µM (inactive) | 16 µM (inactive)
CC(=O)NC(CCCN(Cc1ccccc1)C(=O)NCCCl)C(=O)NCc1ccccc1 (stereo not drawn) | > 100 µM (inactive) | – | > 100 µM (inactive) | > 100 µM (inactive) | > 100 µM (inactive) | > 100 µM (inactive) | > 100 µM (inactive) | – | – | > 100 µM (inactive) | > 100 µM (inactive) | > 100 µM (inactive) | > 100 µM (inactive) | – | > 100 µM (inactive) | > 100 µM (inactive) | > 100 µM (inactive) | > 69.5 µM (inactive) | > 100 µM (inactive) | –
Sc1nnc(CCCCCCCCc2nnc(S)o2)o1 | > 100 µM (inactive) | > 100 µM (inactive) | > 100 µM (inactive) | > 100 µM (inactive) | > 100 µM (inactive) | > 100 µM (inactive) | > 100 µM (inactive) | > 100 µM (inactive) | > 100 µM (inactive) | – | > 100 µM (inactive) | – | > 100 µM (inactive) | > 100 µM (inactive) | – | > 100 µM (inactive) | > 100 µM (inactive) | > 100 µM (inactive) | – | > 100 µM (inactive)
Cc1ccc(S(=O)(=O)N/N=C(\c2nc3ccc(Cl)cc3nc2O)C(O)c2cccc([N+](=O)[O-])c2)cc1 (stereo not drawn) | > 100 µM (inactive) | – | > 100 µM (inactive) | > 100 µM (inactive) | > 100 µM (inactive) | > 100 µM (inactive) | > 100 µM (inactive) | – | – | > 100 µM (inactive) | > 100 µM (inactive) | 63.4 µM (inactive) | > 100 µM (inactive) | – | 71 µM (inactive) | > 100 µM (inactive) | > 100 µM (inactive) | > 100 µM (inactive) | > 100 µM (inactive) | –
C/C(=N\NC(=S)NC(C)C)c1nc2cccnc2[nH]1 | 31.5 µM (inactive) | 15.5 µM (inactive) | 18.2 µM (inactive) | 11 µM (inactive) | 13.5 µM (inactive) | 18 µM (inactive) | 65.8 µM (inactive) | > 26.7 µM (inactive) | – | 33.9 µM (inactive) | – | 13.8 µM (inactive) | 6.62 µM (inactive) | 27.9 µM (inactive) | > 100 µM (inactive) | 13.1 µM (inactive) | 12.7 µM (inactive) | 28.1 µM (inactive) | 29.8 µM (inactive) | 21.9 µM (inactive)
CC(C)(C)OC(=O)NCC(CNC(=O)OC(C)(C)C)c1nc(C(N)=O)cs1 | > 100 µM (inactive) | > 100 µM (inactive) | > 100 µM (inactive) | > 100 µM (inactive) | > 100 µM (inactive) | > 100 µM (inactive) | > 100 µM (inactive) | > 100 µM (inactive) | > 100 µM (inactive) | > 100 µM (inactive) | > 100 µM (inactive) | – | > 100 µM (inactive) | > 100 µM (inactive) | – | > 100 µM (inactive) | > 100 µM (inactive) | 0.818 µM (active) | > 100 µM (inactive) | > 100 µM (inactive)
O=c1[nH]nc(-c2ccc3ccccc3c2)[nH]1 | > 100 µM (inactive) | > 100 µM (inactive) | > 100 µM (inactive) | > 100 µM (inactive) | 0.282 µM (active) | > 100 µM (inactive) | 36.2 µM (inactive) | – | > 100 µM (inactive) | > 100 µM (inactive) | > 100 µM (inactive) | > 100 µM (inactive) | > 100 µM (inactive) | > 100 µM (inactive) | > 100 µM (inactive) | – | – | 22.9 µM (inactive) | 21 µM (inactive) | > 100 µM (inactive)
CCOC(=O)C(O)(NC(=O)Nc1ccc(F)cc1)C(F)(F)F (stereo not drawn) | > 100 µM (inactive) | > 100 µM (inactive) | 38.8 µM (inactive) | > 100 µM (inactive) | > 100 µM (inactive) | – | – | – | > 100 µM (inactive) | – | > 100 µM (inactive) | – | – | > 100 µM (inactive) | > 100 µM (inactive) | > 100 µM (inactive) | > 100 µM (inactive) | > 100 µM (inactive) | – | –
COC(=O)c1c(O)ccc2c1c1cc3ccccc3cc1n2Cc1cc(OC)cc(OC)c1 | 3.37 µM (inactive) | – | 2.18 µM (inactive) | 10.1 µM (inactive) | 6.3 µM (inactive) | 3.23 µM (inactive) | 0.805 µM (active) | 6.55 µM (inactive) | 0.321 µM (active) | 1.22 µM (inactive) | 4.53 µM (inactive) | 0.194 µM (active) | 0.339 µM (active) | 2.46 µM (inactive) | 1.96 µM (inactive) | 1.34 µM (inactive) | 1.43 µM (inactive) | 2.51 µM (inactive) | 3.13 µM (inactive) | 1.73 µM (inactive)
CCOC(=O)C(=CNC(=S)N/N=C1\C(=O)Nc2ccccc21)C(=O)OCC | > 100 µM (inactive) | – | 21.1 µM (inactive) | 99.1 µM (inactive) | – | > 100 µM (inactive) | 52 µM (inactive) | > 100 µM (inactive) | > 100 µM (inactive) | – | > 100 µM (inactive) | – | 46.2 µM (inactive) | > 100 µM (inactive) | > 100 µM (inactive) | 90.8 µM (inactive) | > 100 µM (inactive) | 21.5 µM (inactive) | > 100 µM (inactive) | 92.9 µM (inactive)
